Laboratory results taken from patent US11358969B2, “Indole AHR inhibitors and uses thereof” (Ikena Oncology, Inc., priority 2017, dated 2022).
pIC50: −log10 of the molar value. Like-named read-outs stand apart in the source and are kept apart here.

What was measured:
[1] = target: T1, AHR (UniProt P35869); test: DRE-Luciferase Reporter Assay (Alternate Method) (Example 1B); type: cell-based, murine or human; conditions: cell line and AHR activating ligand not specified
T1 construct: IC50
T1 sequence (P35869 1-848): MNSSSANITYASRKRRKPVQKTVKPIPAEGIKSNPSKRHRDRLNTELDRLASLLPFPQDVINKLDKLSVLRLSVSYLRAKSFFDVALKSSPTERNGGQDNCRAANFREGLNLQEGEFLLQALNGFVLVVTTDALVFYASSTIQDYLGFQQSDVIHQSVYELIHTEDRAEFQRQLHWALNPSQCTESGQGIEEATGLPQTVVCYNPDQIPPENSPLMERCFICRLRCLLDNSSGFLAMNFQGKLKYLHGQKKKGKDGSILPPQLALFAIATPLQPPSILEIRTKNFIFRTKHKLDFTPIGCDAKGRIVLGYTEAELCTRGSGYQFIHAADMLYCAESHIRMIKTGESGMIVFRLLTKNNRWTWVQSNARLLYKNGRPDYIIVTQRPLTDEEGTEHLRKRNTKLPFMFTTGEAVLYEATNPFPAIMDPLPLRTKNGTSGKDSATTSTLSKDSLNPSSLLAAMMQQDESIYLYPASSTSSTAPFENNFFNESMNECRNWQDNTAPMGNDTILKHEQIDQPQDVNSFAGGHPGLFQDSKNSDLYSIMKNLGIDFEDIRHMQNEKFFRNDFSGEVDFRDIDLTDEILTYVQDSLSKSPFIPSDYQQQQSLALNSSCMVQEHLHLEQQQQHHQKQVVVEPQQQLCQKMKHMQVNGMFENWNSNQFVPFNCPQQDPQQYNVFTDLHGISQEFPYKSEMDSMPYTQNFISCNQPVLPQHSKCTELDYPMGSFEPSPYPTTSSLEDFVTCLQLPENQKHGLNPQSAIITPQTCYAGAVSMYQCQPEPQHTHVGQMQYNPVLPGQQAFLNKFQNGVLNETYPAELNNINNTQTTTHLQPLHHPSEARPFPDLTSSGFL

[2] = Mouse Pharmacokinetic Study (Example 1C); type: in vivo; conditions: mouse, plasma, CD-1 mice; for Vd: read-out: Vdss
Protocol: Formulations of compounds set forth in Table 4 were administered intravenously or orally via gavage to CD-1 mice. Typically, at 0.167, 0.5, 1, 2, 4, 6, 12, and 24 hours post-dose, blood was collected and processed to plasma by centrifugation and stored at −80° C. until analysis.
Internal standard was added to each sample prior to protein precipitation with acetonitrile. The precipitates were filtered through a Phree phospholipid removal filter plate and the samples were analyzed by LC/MS/MS. A standard curve was prepared in plasma from typically from 1.0 ng/mL to 3000 ng/mL and processed in the same manner as the samples. Sample analysis was typically performed on a suitable LC/MS/MS system fitted with an analytical UPLC column and compounds eluted from the analytical column with a gradient from 30-95% 0.1% formic acid (v/v) in ACN: 0.1% formic acid (v/v) in water. Mass spectrometric detection of test compound and the internal standard was performed by MRM in positive mode. The pharmacokinetics of each compound were analyzed by Phoenix WinNonlin software (Pharsight, St. Louis, Mo.) via non-compartmental analysis.

[3] = In Vitro Mouse liver S9 Metabolic Stability Assay (Example 1D); type: in vitro ADME; conditions: CD-1 mouse liver S9, 1 μM compound, 1 mg/mL S9 protein, 37° C., NADPH regenerating system, UDPGA, PAPS
Outline: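 Compound at 1 μM final (0.1% DMSO) incubated at 37° C with pooled CD-1 mouse liver S9 (1 mg/mL protein) plus NADPH-regenerating system, UDPGA and PAPS. Samples at 0 and 60 min quenched in cold acetonitrile with internal standard; LC-MS/MS analyte/IS peak-area ratios give % remaining at 60 min.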

[4] = test system: Cyp1a1; test: In Vivo Mouse liver and spleen Cyp1a1 Modulation Assay (Example 1E); set-up: species or system C57BL/6 mice; conditions: po, 4 h, dose 30 mg/kg, with AHR agonist VAG539 30 mg/kg po, qPCR
Protocol: C57BL/6 mice, female, 6-8 weeks old, weighing approximately 18-20 g were purchased from Shanghai Lingchang Biological Technology Co., Ltd or other certified vendors and used in the studies. Animal husbandry, feeding and health conditions are according to animal welfare guidelines. VAG539 (30 mg/kg, po) was used as AHRagonist, and test compounds were formulated in suitable vehicles, typically 0.5% methylcellulose).
C57BL/6 mice (n=3 per group) were treated with AHR agonist alone or with AHR agonist and test compounds. Animals were sacrificed at 4 or 10 hours after treatment upon which their livers and spleens were collected and subsequently analyzed by qPCR. Normalized fold induction of cyp1a1 was determined by comparing mCYP1A1 and mGAPDH counts (ct) according to: normalized fold=2^−ΔΔCt. The percent inhibition was calculated according to: […]

[5] = read-out: Cyp1a1 inhibition, Liver, 4 h
[6] = read-out: Cyp1a1 inhibition, Spleen, 4 h

Fc1cncc(-c2cc(NCCc3c[nH]c4ccccc34)n3ncc(Br)c3n2)c1 [I-39, 3-Bromo-5-(5-fluoro-3-pyridyl)-N-[2-(1H-indol-3-yl)ethyl]pyrazolo[1,5-a]pyrimidin-7-amine]
pIC50 [1]: > 6.30
bioavailability ([2]; po, 30 mg/kg): 17%
AUC(0-inf) ([2]; iv, 3 mg/kg): 931 ng·h/mL
AUC(0-t) ([2]; iv, 3 mg/kg): 908 ng·h/mL
clearance ([2]; iv, 3 mg/kg): 53.7 mL/min/kg
half-life ([2]; iv, 3 mg/kg): 1.31 h
Vd ([2]; iv, 3 mg/kg): 3.5 L/kg
AUC(0-inf) ([2]; po, 30 mg/kg): 1610 ng·h/mL
AUC(0-t) ([2]; po, 30 mg/kg): 1600 ng·h/mL
Cmax ([2]; po, 30 mg/kg): 799 ng/mL
half-life ([2]; po, 30 mg/kg): 3.35 h
Mouse S9 Stability: % Remaining After 60 Minutes [3]: 30%
inhibition at 30 mg/kg [4, 5]: 90%
inhibition at 30 mg/kg [4, 6]: 69%

CC(C)c1cnn2c(NCCc3c[nH]c4ccccc34)cc(-c3cccnc3)nc12 [I-46, N-[2-(1H-Indol-3-yl)ethyl]-3-isopropyl-5-(3-pyridyl)pyrazolo[1,5-a]pyrimidin-7-amine]
pIC50 [1]: > 6.30
inhibition at 30 mg/kg [4, 5]: 96%
inhibition at 30 mg/kg [4, 6]: 94%

CC(=O)c1cnn2c(NCCc3c[nH]c4ccccc34)cc(-c3cncc(F)c3)nc12 [I-57, 1-[5-(5-Fluoro-3-pyridyl)-7-[2-(1H-indol-3-yl)ethylamino]pyrazolo[1,5-a]pyrimidin-3-yl]ethanone]
pIC50 [1]: > 6.30
inhibition at 30 mg/kg [4, 5]: 77%
inhibition at 30 mg/kg [4, 6]: 66%

CC(C)c1cnn2c(N[C@@H]3CCc4[nH]c5ccccc5c4C3)cc(-c3cncc(F)c3)nc12 [I-75a, (3R)—N-[5-(5-fluoro-3-pyridyl)-3-isopropyl-pyrazolo[1,5-a]pyrimidin-7-yl]-2,3,4,9-tetrahydro-1H-carbazol-3-amine]
pIC50 [1]: < 5.82
bioavailability ([2]; po, 30 mg/kg): 51%
AUC(0-inf) ([2]; iv, 3 mg/kg): 2260 ng·h/mL
AUC(0-t) ([2]; iv, 3 mg/kg): 2670 ng·h/mL
clearance ([2]; iv, 3 mg/kg): 14.4 mL/min/kg
half-life ([2]; iv, 3 mg/kg): 13.8 h
Vd ([2]; iv, 3 mg/kg): 13.7 L/kg
Cmax ([2]; po, 30 mg/kg): 969 ng/mL
Tmax ([2]; po, 30 mg/kg): 2 h
half-life ([2]; po, 30 mg/kg): 9.8 h
Mouse S9 Stability: % Remaining After 60 Minutes [3]: 65%
inhibition at 30 mg/kg [4, 5]: 55%

Fc1cncc(-c2nc(N[C@@H]3CCc4[nH]c5ccccc5c4C3)n3ncc(Br)c3n2)c1 [I-154, (3R)—N-[8-Bromo-2-(5-fluoro-3-pyridyl)pyrazolo[1,5-a][1,3,5]triazin-4-yl]-2,3,4,9-tetrahydro-1H-carbazol-3-amine]
pIC50 [1]: > 6.30
bioavailability ([2]; po, 30 mg/kg): 39%
AUC(0-inf) ([2]; iv, 3 mg/kg): 3030 ng·h/mL
AUC(0-t) ([2]; iv, 3 mg/kg): 2410 ng·h/mL
clearance ([2]; iv, 3 mg/kg): 16.5 mL/min/kg
half-life ([2]; iv, 3 mg/kg): 12 h
Vd ([2]; iv, 3 mg/kg): 13.7 L/kg
AUC(0-inf) ([2]; po, 30 mg/kg): 11200 ng·h/mL
AUC(0-t) ([2]; po, 30 mg/kg): 9360 ng·h/mL
Cmax ([2]; po, 30 mg/kg): 840 ng/mL
Tmax ([2]; po, 30 mg/kg): 2 h
half-life ([2]; po, 30 mg/kg): 9.6 h
Mouse S9 Stability: % Remaining After 60 Minutes [3]: 13%
